For the first test, the target named is T1, p70S6K (Homo sapiens, UniProt P23443, T412E).
T1 construct: human p70S6 kinase domain residues 1-421, containing a T412E mutation; made in house
T1 sequence (P23443 1-421 T412E): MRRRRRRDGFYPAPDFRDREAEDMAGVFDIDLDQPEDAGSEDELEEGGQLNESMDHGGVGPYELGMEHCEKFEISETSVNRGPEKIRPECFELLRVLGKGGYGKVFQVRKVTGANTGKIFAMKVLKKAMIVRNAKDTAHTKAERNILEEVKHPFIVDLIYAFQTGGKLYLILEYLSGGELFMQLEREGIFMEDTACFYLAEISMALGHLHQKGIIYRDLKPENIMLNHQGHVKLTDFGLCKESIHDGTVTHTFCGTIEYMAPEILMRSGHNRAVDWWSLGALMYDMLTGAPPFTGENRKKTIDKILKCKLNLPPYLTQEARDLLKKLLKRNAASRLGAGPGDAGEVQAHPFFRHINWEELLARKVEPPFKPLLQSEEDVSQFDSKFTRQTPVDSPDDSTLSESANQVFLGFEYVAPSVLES
Put plainly: p70S6 Kinase Assay (Luciferase-Coupled Chemiluminescent Kinase assay, LCCA). The conditions noted are these: human p70S6 kinase domain residues 1-421, T412E; 5 μM ATP; read-out: p70S6K IC50. Type of test: biochemical. As for the experimental part: Kinase activity and compound inhibition are investigated using one or more of the three assay formats described below. The ATP concentrations for each assay are selected to be close to the Michaelis-Menten constant (KM) for each individual kinase. Dose-response experiments are performed at 10 different inhibitor concentrations in a 384-well plate format. […] Y=Min+(Max−Min)/(1+(X/IC50)^H) Equation (2) p70S6 Kinase Assay
Biochemical activity of p70S6 kinase was assessed using a Luciferase-Coupled Chemiluminescent Kinase assay (LCCA) format. Kinase activity was measured as the percent ATP remaining following the kinase reaction. Remaining ATP was detected by luciferase-luciferin-coupled chemiluminescence. […] The mixture is incubated at ambient temperature for 2 hours after which 20 μL luciferase-luciferin mix is added and the chemiluminescent signal read using a Wallac Victor^2 reader.
By IC50 is commonly meant the midpoint of a concentration-inhibition curve. `CSc1nc(N)nc(OC(C(=O)Nc2cccc(C(F)(F)F)c2)C(C)C)c1C#N` (stereo in doubt) [Example 70, (2S)-2-{[2-amino-5-cyano-6-(methylthio)pyrimidin-4-yl]oxy}-3-methyl-N-[3-(trifluoromethyl)phenyl]butanamide]: the IC50 was more than 2000 nM.

On to `CSc1nc(NC(C)=O)nc(SCC(=O)Nc2cccc(C(F)(F)F)c2)c1C#N` [Example 41, 2-{[2-(acetylamino)-5-cyano-6-(methylthio)pyrimidin-4-yl]thio}-N-[3-(trifluoromethyl)phenyl]acetamide], for which the 50% inhibitory concentration (IC50) was 50 to 500 nM.

As to `CNc1nc(N)nc(SCC(=O)Nc2cccc(C(F)(F)F)c2)c1C=O` [Example 45, 2-{[2-amino-5-formyl-6-(methylamino)pyrimidin-4-yl]thio}-N-[3-(trifluoromethyl)phenyl]acetamide], the IC50 was in the range of 50 to 500 nM.

In the case of `CSc1nc(N)nc(OCC(=O)Nc2cccc(C(F)(F)F)c2)c1C=O` [Example 46, 2-{[2-amino-5-formyl-6-(methylthio)pyrimidin-4-yl]oxy}-N-[3-(trifluoromethyl)phenyl]acetamide], the IC50 was 50 to 500 nM.

In the case of `CSc1nc(N)nc(OCC(=O)Nc2cccc(C(F)(F)F)c2)n1` [Example 47, 2-{[4-amino-6-(methylthio)-1,3,5-triazin-2-yl]oxy}-N-[3-(trifluoromethyl)phenyl]acetamide], the IC50 was 50 to 500 nM.

As to `CSc1cc(SCC(=O)Nc2cccc(C(F)(F)F)c2)nc(N)n1` [Example 48, 2-{[2-amino-6-(methylthio)pyrimidin-4-yl]thio}-N-[3-(trifluoromethyl)phenyl]acetamide], the IC50 was in the range of 50 to 500 nM.

Take `Nc1nc(Cl)c(C=O)c(OCC(=O)Nc2cccc(C(F)(F)F)c2)n1` [Example 50, 2-[(2-amino-6-chloro-5-formylpyrimidin-4-yl)oxy]-N-[3-(trifluoromethyl)phenyl]acetamide]: the 50% inhibitory concentration (IC50) lay in the range of 50 to 500 nM.

With `Nc1nc(SCC(=O)Nc2cccc(C(F)(F)F)c2)c(C=O)c(Sc2ccccc2)n1` [Example 51, 2-{[2-amino-5-formyl-6-(phenylthio)pyrimidin-4-yl]thio}-N-[3-(trifluoromethyl)phenyl]acetamide], the half-inhibitory concentration (IC50) lay in the range of 50 to 500 nM.

Take `Nc1nc(SCC(=O)Nc2cccc(C(F)(F)F)c2)c(CO)c(Sc2ccccc2)n1` [Example 52]: the 50% inhibitory concentration (IC50) was in the range of 50 to 500 nM.

As to `CSc1nc(N)nc(SCC(=O)Nc2cccc(C(F)(F)F)c2C)c1C#N` [Example 53, 2-{[2-amino-5-cyano-6-(methylthio)pyrimidin-4-yl]thio}-N-[2-methyl-3-(trifluoromethyl)phenyl]acetamide], the IC50 was 500 to 2000 nM.

As for `COc1ccc(C(F)(F)F)cc1NC(=O)CSc1nc(N)nc(SC)c1C#N` [Example 54, 2-{[2-mino-5-cyano-6-(methylthio)pyrimidin-4-yl]thio}-N-[2-(methyloxy)-5-(trifluoromethyl)phenyl]acetamide], the IC50 was 500 to 2000 nM.

As to `CSc1nc(N)nc(SCC(=O)Nc2cc(C(F)(F)F)ccc2Cl)c1C#N` [Example 55, 2-{[2-amino-5-cyano-6-(methylthio)pyrimidin-4-yl]thio}-N-[2-chloro-5-(trifluoromethyl)phenyl]acetamide], the IC50 is 500 to 2000 nM.

Take `CSc1nc(N)nc(OCC(=O)Nc2cccc(C(F)(F)F)c2)c1CO` [Example 56, 2-{[2-amino-5-(hydroxymethyl)-6-(methylthio)pyrimidin-4-yl]oxy}-N-[3-(trifluoromethyl)phenyl]acetamide]: the IC50 was 500 to 2000 nM.

Consider `Nc1nc(NCC(=O)Nc2cccc(C(F)(F)F)c2)c2cn[nH]c2n1` [Example 57, N^2-(6-amino-1H-pyrazolo[3,4-d]pyrimidin-4-yl)-N-[3-(trifluoromethyl)phenyl]glycinamide], for which the IC50 is 500 to 2000 nM.

On to `CSc1nc(N)nc(NCC(=O)Nc2cccc(C(F)(F)F)c2)c1/C=N/N` [Example 58, N^2-[2-amino-5-[(E)-hydrazonomethyl]-6-(methylthio)pyrimidin-4-yl]-N-[3-(trifluoromethyl)phenyl]glycinamide], for which the IC50 was 500 to 2000 nM.

As to `CSc1nc(N)nc(NCC(=O)Nc2cccc(C(F)(F)F)c2)c1/C=N/O` [Example 59, N^2-[2-amino-5-[(E)-(hydroxymino)methyl]-6-(methylthio)pyrimidin-4-yl]-N-[3-(trifluoromethyl)phenyl]glycinamide], the IC50 lay in the range of 500 to 2000 nM.

As for `CSc1nc(N)nc(N[C@@H](C)C(=O)Nc2cccc(C(F)(F)F)c2)c1C#N` [Example 60, N^2-[2-amino-5-cyano-6-(methylthio)pyrimidin-4-yl]-N-[3-(trifluoromethyl)phenyl]-L-alaninamide], the concentration for half-maximal inhibition (IC50) was in the range of 500 to 2000 nM.

As to `CNc1nc(N)nc(SCC(=O)Nc2cccc(C(F)(F)F)c2)c1C#N` [Example 61, 2-{[2-amino-5-cyano-6-(methylamino)pyrimidin-4-yl]thio}-N-[3-(trifluoromethyl)phenyl]acetamide], the IC50 was in the range of 500 to 2000 nM.

On to `CSc1nc(N)nc(SCC(=O)Nc2cc(C(F)(F)F)ccc2N)c1C#N` [Example 62], for which the IC50 lay within 500 to 2000 nM.

Regarding `CSc1nc(N)nc(SCc2nc3ccc(C(F)(F)F)cc3[nH]2)c1C#N` [Example 63, 2-amino-4-(methylthio)-6-({[6-(trifluoromethyl)-1H-benzimidazol-2-yl]methyl}thio)pyrimidine-5-carbonitrile], the half-maximal inhibitory concentration (IC50) is 500 to 2000 nM.

With `CSc1nc(N)nc(NNC(=O)Nc2cccc(C(F)(F)F)c2)c1C#N` [Example 64, 2-[2-amino-5-cyano-6-(methylthio)pyrimidin-4-yl]-N-[3-(trifluoromethyl)phenyl]hydrazinecarboxamide], the IC50 lay in the range of 500 to 2000 nM.

Consider `CNc1nc(NCC(=O)Nc2cccc(C(F)(F)F)c2)c(C#N)c(SC)n1` [Example 65, N^2-[5-cyano-2-(methylamino)-6-(methylthio)pyrimidin-4-yl]-N-[3-(trifluoromethyl)phenyl]glycinamide], for which the half-maximal inhibitory concentration (IC50) was in the range of 500 to 2000 nM.

As for `CN(C)c1nc(N)nc(SCC(=O)Nc2cccc(C(F)(F)F)c2)c1C#N` [Example 66, 2-{[2-amino-5-cyano-6-(dimethylamino)pyrimidin-4-yl]thio}-N-[3-(trifluoromethyl)phenyl]acetamide], the IC50 was in the range of 500 to 2000 nM.

In the case of `CSc1nc(N)nc(N2CCC[C@H]2C(=O)Nc2cccc(C(F)(F)F)c2)c1C#N` [Example 67, (S)-1-[2-amino-5-cyano-6-(methythio)pyrimidin-4-yl]-N-[3-(trifluoromethyl)phenyl]prolinamide], the IC50 was 500 to 2000 nM.

Take `CSc1nc(N)nc(OC2(C(=O)Nc3cccc(C(F)(F)F)c3)CC2)c1C#N` [Example 69, 1-{[2-amino-5-cyano-6-(methylthio)pyrimidin-4-yl]oxy}-N-[3-(trifluoromethyl)phenyl]cyclopropanecarboxamide]: the IC50 lay in the range of 500 to 2000 nM.

Turning to `CSc1nc(N(C)C)nc(NCC(=O)Nc2cccc(C(F)(F)F)c2)c1C#N` [Example 71, N^2-[5-cyano-2-(dimethylamino)-6-(methylthio)pyrimidin-4-yl]-N-[3-(trifluoromethyl)phenyl]glycinamide], the IC50 was more than 2000 nM.

For `CSc1nc(N)nc(N(C)CC(=O)Nc2cccc(C(F)(F)F)c2)c1C#N` [Example 72, N^2-[2-amino-5-cyano-6-(methylthio)pyrimidin-4-yl]-N^2-methyl-N-[3-(trifluoromethyl)phenyl]glycinamide], the IC50 is more than 2000 nM.

As to `CSc1nc(N)nc(NC2(C(=O)Nc3cccc(C(F)(F)F)c3)CC2)c1C#N` [Example 73, 1-{[2-amino-5-cyno-6-(methylthio)pyrimidin-4-yl]amino}-N-[3-(trifluoromethyl)phenyl]cyclopropanecarboxamide], the half-maximal inhibitory concentration (IC50) is more than 2000 nM.

`C[C@H](Nc1nc(N)nc([S+](C)[O-])c1C#N)C(=O)Nc1cccc(C(F)(F)F)c1` (stereo partly drawn) [Example 74, N^2-[2-amino-5-cyano-6-(methylsulfinyl)pyrimidin-4-yl]-N-[3-(trifluoromethyl)phenyl]-L-alaninamide]: the IC50 was more than 2000 nM.

As for `C[C@H](Nc1nc(N)nc(S(C)(=O)=O)c1C#N)C(=O)Nc1cccc(C(F)(F)F)c1` [Example 75, N^2-[2-amino-5-cyano-6-(methylsulfonyl)pyrimidin-4-yl]-N-[3-(trifluoromethyl)phenyl]-L-alaninamide], the IC50 is more than 2000 nM.

For the molecule `N#Cc1cnc(N2CCOCC2)nc1NCC(=O)Nc1cccc(C(F)(F)F)c1` [Example 76], the half-inhibitory concentration (IC50) was more than 2000 nM.

With `CSc1nc(N)nc(SCC(=O)Nc2cc(C(F)(F)F)cc(C(F)(F)F)c2)c1C#N` [Example 77, 2-{[2-amino-5-cyano-6-(methylthio)pyrimidin-4-yl]thio}-N-[3,5-bis(trifluoromethyl)phenyl]acetamide], the IC50 is more than 2000 nM.

For `COc1nc(N)nc(N[C@@H](C)C(=O)Nc2cccc(C(F)(F)F)c2)c1C#N` [Example 78, N^2-[2-amino-5-cyano-6-(methyloxy)pyrimidin-4-yl]-N-[3-(trifluoromethyl)phenyl]-L-alaninamide], the IC50 is more than 2000 nM.

Staying with this test, now noted: p70S6K IC50, human p70S6 kinase domain residues 1-421, T412E; 5 μM ATP.
As to `CSc1nc(N)nc(O[C@@H](C)C(=O)Nc2cccc(C(F)(F)F)c2)c1C#N` [Example 42, (2S)-2-{[2-amino-5-cyano-6-(methylthio)pyrimidin-4-yl]oxy}-N-[3-(trifluoromethyl)phenyl]propanamide], the IC50 was in the range of 50 to 500 nM.

In the case of `CSc1nc(N)nc(O[C@H](C)C(=O)Nc2cccc(C(F)(F)F)c2)c1C#N` [Example 68, (2R)-2-{[2-amino-5-cyano-6-(methylthio)pyrimidin-4-yl]oxy}-N-[3-(trifluoromethyl)phenyl]propanamide], the IC50 is 500 to 2000 nM.

These data come from patent US7816353B2 (Exelixis, Inc., priority 2003, dated 2010).
